From ChEMBL document CHEMBL3867425, “Synthesis and cytotoxicity evaluation of aryl triazolic derivatives and their hydroxymethine homologues against B16 melanoma cell line” (Eur J Med Chem, 2016)

Assay: Cytotoxicity against mouse B16 cells assessed as decrease in cell viability after 48 hrs by MTT assay
Assay type: functional, cell-based
Details: B16, 48 h

COc1ccc(Cn2cc(-c3ccc(OC)cc3)nn2)cc1
IC50: > 100 µM

Cc1ccc(C(O)c2cn(Cc3ccccc3)nn2)cc1 (stereo unspecified)
IC50: > 100 µM

COc1ccc(-c2cn(C[C@H]3COC(C)(C)O3)nn2)cc1
IC50: > 100 µM

COc1ccc(C(O)c2cn(C[C@H]3COC(C)(C)O3)nn2)cc1 (stereo partly specified)
IC50: > 100 µM

CCOC(=O)Cn1cc(C(O)c2ccc3ccccc3c2)nn1 (stereo unspecified)
IC50: > 100 µM

COc1ccc(Cn2cc(C(O)c3ccc(OC)c(OC)c3OC)nn2)cc1 (stereo unspecified)
IC50: > 100 µM

COc1ccc(Cn2cc(-c3ccc([N+](=O)[O-])cc3)nn2)cc1
IC50: 19.1 µM

CC1(C)OC[C@H](Cn2cc(-c3ccc(C(F)(F)F)cc3)nn2)O1
IC50: > 100 µM

COc1ccc(Cn2cc(-c3ccc(C(F)(F)F)cc3)nn2)cc1
IC50: 17.4 µM

COc1ccc(Cn2cc(-c3ccc4ccccc4c3)nn2)cc1
IC50: > 100 µM

CCOC(=O)Cn1cc(-c2ccc([N+](=O)[O-])cc2)nn1
IC50: > 100 µM

COc1ccc(-c2cn(C[C@H]3COC(C)(C)O3)nn2)c(OC)c1OC
IC50: > 100 µM

O=[N+]([O-])c1ccc(-c2cn(Cc3ccccc3)nn2)cc1
IC50: 5.12 µM

COc1ccc(Cn2cc(-c3ccc(C)cc3)nn2)cc1
IC50: 19.5 µM

COc1ccc(C(O)c2cn(C[C@H]3COC(C)(C)O3)nn2)c(OC)c1OC (stereo partly specified)
IC50: > 100 µM

CC1(C)OC[C@H](Cn2cc(-c3ccc4ccccc4c3)nn2)O1
IC50: 12 µM

COc1ccc(-c2cn(CCO)nn2)cc1
IC50: > 100 µM

CC1(C)OC[C@H](Cn2cc(C(O)c3ccc([N+](=O)[O-])cc3)nn2)O1 (stereo partly specified)
IC50: > 100 µM

COc1ccc(C(O)c2cn(CCO)nn2)c(OC)c1OC (stereo unspecified)
IC50: > 100 µM

Cc1ccc(-c2cn(C[C@H]3COC(C)(C)O3)nn2)cc1
IC50: > 100 µM

CC1(C)OC[C@H](Cn2cc(-c3ccc([N+](=O)[O-])cc3)nn2)O1
IC50: > 100 µM

COc1ccc(Cn2cc(C(O)c3ccc(C)cc3)nn2)cc1 (stereo unspecified)
IC50: > 100 µM

COc1ccc(Cn2cc(C(O)c3ccc(OC)cc3)nn2)cc1 (stereo unspecified)
IC50: > 100 µM

COc1ccc(Cn2cc(C(O)c3ccc([N+](=O)[O-])cc3)nn2)cc1 (stereo unspecified)
IC50: > 100 µM

COc1ccc(C(O)c2cn(CCO)nn2)cc1 (stereo unspecified)
IC50: > 100 µM

CCOC(=O)Cn1cc(-c2ccc3ccccc3c2)nn1
IC50: > 100 µM

Cc1ccc(C(O)c2cn(C[C@H]3COC(C)(C)O3)nn2)cc1 (stereo partly specified)
IC50: > 100 µM

COc1ccc(-c2cn(Cc3ccccc3)nn2)cc1
IC50: > 100 µM

OC(c1ccc(C(F)(F)F)cc1)c1cn(Cc2ccccc2)nn1 (stereo unspecified)
IC50: > 100 µM

CCOC(=O)Cn1cc(-c2ccc(OC)c(OC)c2OC)nn1
IC50: > 100 µM

OCCn1cc(-c2ccc(C(F)(F)F)cc2)nn1
IC50: > 100 µM

COc1ccc(-c2cn(Cc3ccccc3)nn2)c(OC)c1OC
IC50: 27.5 µM

c1ccc(Cn2cc(-c3ccc4ccccc4c3)nn2)cc1
IC50: 3.89 µM

COc1ccc(Cn2cc(-c3ccc(OC)c(OC)c3OC)nn2)cc1
IC50: > 100 µM

Cc1ccc(-c2cn(CCO)nn2)cc1
IC50: > 100 µM

OCCn1cc(-c2ccc3ccccc3c2)nn1
IC50: > 100 µM

FC(F)(F)c1ccc(-c2cn(Cc3ccccc3)nn2)cc1
IC50: > 100 µM

OC(c1ccc2ccccc2c1)c1cn(Cc2ccccc2)nn1 (stereo unspecified)
IC50: 28.8 µM

Cc1ccc(-c2cn(Cc3ccccc3)nn2)cc1
IC50: > 100 µM

CC1(C)OCC(Cn2cc(C(O)c3ccc(C(F)(F)F)cc3)nn2)O1 (racemic)
IC50: > 100 µM

CC1(C)OCC(Cn2cc(C(O)c3ccc4ccccc4c3)nn2)O1 (racemic)
IC50: 26.9 µM

Cc1ccc(-c2cn(CC3COC(C)(C)O3)nn2)cc1 (racemic)
IC50: 41.7 µM

CC1(C)OCC(Cn2cc(-c3ccc([N+](=O)[O-])cc3)nn2)O1 (racemic)
IC50: > 100 µM

CC1(C)OCC(Cn2cc(-c3ccc4ccccc4c3)nn2)O1 (racemic)
IC50: 6.6 µM

CC1(C)OCC(Cn2cc(-c3ccc(C(F)(F)F)cc3)nn2)O1 (racemic)
IC50: 13.5 µM

Cc1ccc(C(O)c2cn(CC3COC(C)(C)O3)nn2)cc1 (racemic)
IC50: > 100 µM
